Experimental data: ChEMBL document CHEMBL5046241, “The novel therapeutic strategy of vilazodone-donepezil chimeras as potent triple-target ligands for the potential treatment of Alzheimer's disease with comorbid depression” (Eur J Med Chem, 2022)

Target: T1, 5-hydroxytryptamine receptor 1A (Homo sapiens, UniProt P08908)
T1 sequence (P08908 whole entry): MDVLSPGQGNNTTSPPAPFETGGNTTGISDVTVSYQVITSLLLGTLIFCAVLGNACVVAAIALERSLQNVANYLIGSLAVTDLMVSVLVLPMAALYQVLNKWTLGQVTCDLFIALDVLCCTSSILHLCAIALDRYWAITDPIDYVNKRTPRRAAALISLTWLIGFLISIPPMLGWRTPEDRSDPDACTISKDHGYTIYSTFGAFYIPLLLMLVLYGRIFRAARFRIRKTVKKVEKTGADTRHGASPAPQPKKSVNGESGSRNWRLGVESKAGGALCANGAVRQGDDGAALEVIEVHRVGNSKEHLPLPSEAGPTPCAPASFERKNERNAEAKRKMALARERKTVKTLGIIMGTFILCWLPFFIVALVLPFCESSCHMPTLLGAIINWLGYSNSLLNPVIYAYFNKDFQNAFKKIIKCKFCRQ
Experiment: not given
Conditions: not given

**Q.** Which EC50 does the source give for `C#CCN1CCC(CCC(=O)c2ccc(N3CCN(CCCCc4c[nH]c5ccc(C#N)cc45)CC3)cc2)CC1` here?
**A.** 29 nM

**Q.** For `N#Cc1ccc2[nH]cc(CCCCN3CCN(c4ccc(C(=O)CCC5CCN(Cc6cccc(C(F)(F)F)c6)CC5)cc4)CC3)c2c1`, which EC50 is on record?
**A.** 323 nM

**Q.** For `C=CCN1CCC(CCC(=O)c2ccc(N3CCN(CCCCc4c[nH]c5ccc(C#N)cc45)CC3)cc2)CC1`, which EC50 is on record?
**A.** 8.6 nM

**Q.** For `Cc1ccc2[nH]cc(CCCCN3CCN(c4ccc(C(=O)CCC5CCN(Cc6ccccc6)CC5)cc4)CC3)c2c1`, which EC50 is on record?
**A.** 279 nM

**Q.** For `N#Cc1ccc2[nH]cc(CCCCN3CCN(c4ccc(C(=O)CCC5CCN(Cc6ccsc6)CC5)cc4)CC3)c2c1`, which EC50 is on record?
**A.** 66.6 nM

**Q.** Which EC50 does the source give for `N#Cc1ccc2[nH]cc(CCCCN3CCN(c4ccc(C(=O)CCC5CCN(CC6CCCC6)CC5)cc4)CC3)c2c1` here?
**A.** 49.8 nM

**Q.** For `N#Cc1ccc2[nH]cc(CCCCN3CCN(c4ccc(C(=O)CCC5CCN(Cc6cccnc6)CC5)cc4)CC3)c2c1`, which EC50 is on record?
**A.** 22 nM

**Q.** For `N#Cc1ccc2[nH]cc(CCCCN3CCN(c4ccc(C(=O)CCC5CCN(Cc6ccc(F)cc6)CC5)cc4)CC3)c2c1`, which EC50 is on record?
**A.** 162 nM

**Q.** With `N#Cc1ccc2[nH]cc(CCCCN3CCN(c4ccc(C(=O)CCC5CCN(CC6CC6)CC5)cc4)CC3)c2c1` as the molecule, how does the EC50 read?
**A.** 9.1 nM

**Q.** For `N#Cc1ccc2[nH]cc(CCCN3CCN(c4ccc(C(=O)CCC5CCN(Cc6ccoc6)CC5)cc4)CC3)c2c1`, which EC50 is on record?
**A.** 29 nM

**Q.** Which EC50 does the source give for `O=C(CCC1CCN(Cc2ccccc2)CC1)c1ccc(N2CCN(CCCCc3c[nH]c4cc(Cl)c(Cl)cc34)CC2)cc1` here?
**A.** > 1000 nM

**Q.** For `N#Cc1ccc2c(CCCCN3CCN(c4ccc(C(=O)CCC5CCN(Cc6ccccc6)CC5)cc4)CC3)c[nH]c2c1`, which EC50 is on record?
**A.** > 1000 nM

Target: Sodium-dependent serotonin transporter (Homo sapiens, UniProt P31645)
Sequence (P31645 whole entry): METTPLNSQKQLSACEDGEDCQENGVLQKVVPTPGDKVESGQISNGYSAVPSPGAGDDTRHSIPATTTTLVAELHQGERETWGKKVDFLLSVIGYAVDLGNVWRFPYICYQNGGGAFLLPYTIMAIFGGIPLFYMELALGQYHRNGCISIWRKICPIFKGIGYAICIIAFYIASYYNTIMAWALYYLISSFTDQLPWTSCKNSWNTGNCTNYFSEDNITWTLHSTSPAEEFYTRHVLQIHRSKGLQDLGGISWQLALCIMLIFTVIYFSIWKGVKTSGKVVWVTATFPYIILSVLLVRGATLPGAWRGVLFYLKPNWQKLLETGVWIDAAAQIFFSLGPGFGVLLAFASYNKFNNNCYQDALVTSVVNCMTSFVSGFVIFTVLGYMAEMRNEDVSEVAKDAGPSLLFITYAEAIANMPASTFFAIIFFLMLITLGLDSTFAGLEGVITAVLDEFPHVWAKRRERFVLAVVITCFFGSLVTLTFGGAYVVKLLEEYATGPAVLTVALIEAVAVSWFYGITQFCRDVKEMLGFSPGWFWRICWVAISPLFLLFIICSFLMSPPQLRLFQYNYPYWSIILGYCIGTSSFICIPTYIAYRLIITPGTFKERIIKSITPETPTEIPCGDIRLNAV
Experiment: not given
Type: cell-based, HEK293
Conditions: not given

**Q.** For `Cc1ccc2[nH]cc(CCCCN3CCN(c4ccc(C(=O)CCC5CCN(Cc6ccccc6)CC5)cc4)CC3)c2c1`, which IC50 is on record?
**A.** > 1000 nM

**Q.** With `N#Cc1ccc2[nH]cc(CCCCN3CCN(c4ccc(C(=O)CCC5CCN(Cc6ccsc6)CC5)cc4)CC3)c2c1` as the molecule, how does the IC50 read?
**A.** 20.1 nM

**Q.** Which IC50 does the source give for `N#Cc1ccc2[nH]cc(CCCCN3CCN(c4ccc(C(=O)CCC5CCN(Cc6cccnc6)CC5)cc4)CC3)c2c1` here?
**A.** 16.2 nM

Target: T2, Acetylcholinesterase (Mus musculus, UniProt P21836)
T2 sequence (P21836 whole entry): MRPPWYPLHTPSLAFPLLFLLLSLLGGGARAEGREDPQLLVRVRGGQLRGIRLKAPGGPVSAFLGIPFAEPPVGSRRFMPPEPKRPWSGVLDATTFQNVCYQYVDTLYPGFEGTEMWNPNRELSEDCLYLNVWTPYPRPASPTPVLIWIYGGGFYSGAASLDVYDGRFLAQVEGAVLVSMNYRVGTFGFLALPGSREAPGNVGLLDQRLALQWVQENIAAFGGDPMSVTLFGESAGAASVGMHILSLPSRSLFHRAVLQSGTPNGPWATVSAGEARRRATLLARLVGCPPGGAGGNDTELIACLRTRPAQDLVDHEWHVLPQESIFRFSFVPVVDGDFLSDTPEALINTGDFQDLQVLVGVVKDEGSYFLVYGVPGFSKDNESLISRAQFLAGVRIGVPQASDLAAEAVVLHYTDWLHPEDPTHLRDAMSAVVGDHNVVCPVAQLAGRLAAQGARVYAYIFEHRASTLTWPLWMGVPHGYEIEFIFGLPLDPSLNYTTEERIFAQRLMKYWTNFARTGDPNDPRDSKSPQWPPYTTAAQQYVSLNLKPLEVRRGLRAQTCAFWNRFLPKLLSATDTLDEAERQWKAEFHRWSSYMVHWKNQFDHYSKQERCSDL
Experiment: biochemical
Conditions: not given

**Q.** Which IC50 does the source give for `C#CCN1CCC(CCC(=O)c2ccc(N3CCN(CCCCc4c[nH]c5ccc(C#N)cc45)CC3)cc2)CC1` here?
**A.** 1140 nM

**Q.** With `N#Cc1ccc2[nH]cc(CCCCN3CCN(c4ccc(C(=O)CCC5CCN(Cc6cccc(C(F)(F)F)c6)CC5)cc4)CC3)c2c1` as the molecule, how does the IC50 read?
**A.** 294 nM

**Q.** With `C=CCN1CCC(CCC(=O)c2ccc(N3CCN(CCCCc4c[nH]c5ccc(C#N)cc45)CC3)cc2)CC1` as the molecule, how does the IC50 read?
**A.** 267 nM

**Q.** For `Cc1ccc2[nH]cc(CCCCN3CCN(c4ccc(C(=O)CCC5CCN(Cc6ccccc6)CC5)cc4)CC3)c2c1`, which IC50 is on record?
**A.** 2.28 nM

**Q.** For `N#Cc1ccc2[nH]cc(CCCCN3CCN(c4ccc(C(=O)CCC5CCN(Cc6ccsc6)CC5)cc4)CC3)c2c1`, which IC50 is on record?
**A.** 3.01 nM

**Q.** For `N#Cc1ccc2[nH]cc(CCCCN3CCN(c4ccc(C(=O)CCC5CCN(CC6CCCC6)CC5)cc4)CC3)c2c1`, which IC50 is on record?
**A.** 40.4 nM

**Q.** With `N#Cc1ccc2[nH]cc(CCCCN3CCN(c4ccc(C(=O)CCC5CCN(Cc6cccnc6)CC5)cc4)CC3)c2c1` as the molecule, how does the IC50 read?
**A.** 7.98 nM

**Q.** For `N#Cc1ccc2[nH]cc(CCCCN3CCN(c4ccc(C(=O)CCC5CCN(Cc6ccc(F)cc6)CC5)cc4)CC3)c2c1`, which IC50 is on record?
**A.** 32.4 nM

**Q.** With `N#Cc1ccc2[nH]cc(CCCCN3CCN(c4ccc(C(=O)CCC5CCN(CC6CC6)CC5)cc4)CC3)c2c1` as the molecule, how does the IC50 read?
**A.** 366 nM

**Q.** With `N#Cc1ccc2[nH]cc(CCCN3CCN(c4ccc(C(=O)CCC5CCN(Cc6ccoc6)CC5)cc4)CC3)c2c1` as the molecule, how does the IC50 read?
**A.** 9.61 nM

**Q.** Which IC50 does the source give for `O=C(CCC1CCN(Cc2ccccc2)CC1)c1ccc(N2CCN(CCCCc3c[nH]c4cc(Cl)c(Cl)cc34)CC2)cc1` here?
**A.** 11.2 nM

**Q.** For `N#Cc1ccc2c(CCCCN3CCN(c4ccc(C(=O)CCC5CCN(Cc6ccccc6)CC5)cc4)CC3)c[nH]c2c1`, which IC50 is on record?
**A.** 3.71 nM

Target: Cholinesterase (Mus musculus, UniProt Q03311)
Sequence (Q03311 whole entry): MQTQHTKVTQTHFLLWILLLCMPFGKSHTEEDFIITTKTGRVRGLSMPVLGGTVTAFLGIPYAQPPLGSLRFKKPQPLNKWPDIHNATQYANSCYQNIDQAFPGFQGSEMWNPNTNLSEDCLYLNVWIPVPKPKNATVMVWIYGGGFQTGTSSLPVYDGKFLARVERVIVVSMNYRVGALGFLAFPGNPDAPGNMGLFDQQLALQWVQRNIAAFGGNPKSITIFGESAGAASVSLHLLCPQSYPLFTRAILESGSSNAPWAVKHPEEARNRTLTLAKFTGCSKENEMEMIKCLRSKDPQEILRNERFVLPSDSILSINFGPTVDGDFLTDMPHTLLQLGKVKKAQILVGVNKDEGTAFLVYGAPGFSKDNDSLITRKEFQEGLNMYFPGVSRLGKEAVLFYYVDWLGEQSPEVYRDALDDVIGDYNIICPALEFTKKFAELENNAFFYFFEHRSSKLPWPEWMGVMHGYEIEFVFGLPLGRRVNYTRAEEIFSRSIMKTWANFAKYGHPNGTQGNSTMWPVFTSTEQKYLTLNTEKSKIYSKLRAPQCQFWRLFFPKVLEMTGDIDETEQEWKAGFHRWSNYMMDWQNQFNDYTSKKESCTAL
Experiment: not given
Conditions: not given

**Q.** With `C=CCN1CCC(CCC(=O)c2ccc(N3CCN(CCCCc4c[nH]c5ccc(C#N)cc45)CC3)cc2)CC1` as the molecule, how does the IC50 read?
**A.** 1660 nM

**Q.** With `Cc1ccc2[nH]cc(CCCCN3CCN(c4ccc(C(=O)CCC5CCN(Cc6ccccc6)CC5)cc4)CC3)c2c1` as the molecule, how does the IC50 read?
**A.** 1200 nM

**Q.** Which IC50 does the source give for `N#Cc1ccc2[nH]cc(CCCCN3CCN(c4ccc(C(=O)CCC5CCN(Cc6ccsc6)CC5)cc4)CC3)c2c1` here?
**A.** 883 nM

**Q.** Which IC50 does the source give for `N#Cc1ccc2[nH]cc(CCCCN3CCN(c4ccc(C(=O)CCC5CCN(CC6CCCC6)CC5)cc4)CC3)c2c1` here?
**A.** 1760 nM

**Q.** Which IC50 does the source give for `N#Cc1ccc2[nH]cc(CCCCN3CCN(c4ccc(C(=O)CCC5CCN(Cc6cccnc6)CC5)cc4)CC3)c2c1` here?
**A.** 4590 nM

**Q.** For `N#Cc1ccc2[nH]cc(CCCCN3CCN(c4ccc(C(=O)CCC5CCN(Cc6ccc(F)cc6)CC5)cc4)CC3)c2c1`, which IC50 is on record?
**A.** 2680 nM

**Q.** Which IC50 does the source give for `N#Cc1ccc2[nH]cc(CCCCN3CCN(c4ccc(C(=O)CCC5CCN(CC6CC6)CC5)cc4)CC3)c2c1` here?
**A.** 743 nM

**Q.** With `N#Cc1ccc2[nH]cc(CCCN3CCN(c4ccc(C(=O)CCC5CCN(Cc6ccoc6)CC5)cc4)CC3)c2c1` as the molecule, how does the IC50 read?
**A.** 1340 nM

**Q.** Which IC50 does the source give for `O=C(CCC1CCN(Cc2ccccc2)CC1)c1ccc(N2CCN(CCCCc3c[nH]c4cc(Cl)c(Cl)cc34)CC2)cc1` here?
**A.** 5810 nM

**Q.** Which IC50 does the source give for `N#Cc1ccc2c(CCCCN3CCN(c4ccc(C(=O)CCC5CCN(Cc6ccccc6)CC5)cc4)CC3)c[nH]c2c1` here?
**A.** 2640 nM

Tested on: not listed separately
Experiment: in vitro
Conditions: PAMPA
Description: Permeability of compound by PAMPA-BBB assay

**Q.** With `Cc1ccc2[nH]cc(CCCCN3CCN(c4ccc(C(=O)CCC5CCN(Cc6ccccc6)CC5)cc4)CC3)c2c1` as the molecule, how does the Papp read?
**A.** 2.5 ×10⁻⁶ cm/s

**Q.** Which Papp does the source give for `N#Cc1ccc2[nH]cc(CCCCN3CCN(c4ccc(C(=O)CCC5CCN(Cc6ccsc6)CC5)cc4)CC3)c2c1` here?
**A.** 4.62 ×10⁻⁶ cm/s

**Q.** With `N#Cc1ccc2[nH]cc(CCCCN3CCN(c4ccc(C(=O)CCC5CCN(Cc6cccnc6)CC5)cc4)CC3)c2c1` as the molecule, how does the Papp read?
**A.** 4.43 ×10⁻⁶ cm/s

**Q.** Which Papp does the source give for `N#Cc1ccc2[nH]cc(CCCN3CCN(c4ccc(C(=O)CCC5CCN(Cc6ccoc6)CC5)cc4)CC3)c2c1` here?
**A.** 5.17 ×10⁻⁶ cm/s
